Data taken from US8586620B2, “Substituted indole compounds having NOS inhibitory activity” (NeurAxon, Inc., priority 2005, dated 2013).
Where a name gives a salt, the structure may show the parent alone. Read-outs that look alike come from different tables or passages of the source. Values belong to the compound of their own block, whether it stands above or below them.

Tests used:
[1] = molecular target: human neuronal constitutive NOS (nNOS) (Homo sapiens (Human), UniProt P29475); assay: Human nNOS enzyme assay, radiometric [3H]L-arginine to [3H]L-citrulline;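 also: recombinant human nNOS expressed in baculovirus-infected Sf9 cells, enzyme activity measured radiometrically as turnover of [3H]L-arginine into [3H]L-citrulline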
[2] = molecular target: human inducible NOS (iNOS) (Homo sapiens (Human), UniProt P35228); assay: Human iNOS enzyme assay, radiometric; format: biochemical
Excerpt: Standard deviations were 10% or less.

murine macrophage iNOS = murine macrophage iNOS (Mus musculus (Mouse), UniProt P29477); assay: Murine iNOS hemoglobin capture assay; format: biochemical
Excerpt: (§1) The NOS isoforms used in this example were recombinant enzymes expressed in E. coli. Rat nNOS was expressed and purified as described previously (Roman et al., Proc. Natl. Acad. Sci. USA 92:8428-8432, 1995). The bovine eNOS isoform was isolated as reported (Martasek et al., Biochem. Biophys. Res. Commun. 219:259-365, 1996) and murine macrophage iNOS was expressed and isolated according to the procedure of Hevel et al. (J. Biol. Chem. 266:22789-22791, 1991). IC50 values and percent inhibition of NOS by the compounds of the invention were determined under initial velocity measurement conditions with the hemoglobin capture assay as previously described (Hevel and Marletta, Methods Enzymol. 133:250-258, 1994). In this assay, nitric oxide reacts with oxyhemoglobin to yield methemoglobin, which was detected at 401 nm (e=19,700 M^−1 cm^−1) on a Perkin-Elmer Lamda 10 UV/vis spectrophotometer. The assays were performed using varying test compound concentrations. Assay mixtures for nNOS or eNOS contained […], 1.6 mM CaCl2, 11.6 mg/mL calmodulin, […], 6.5 mM BH4 and […] in 100 mM Hepes (pH 7.5). Assay mixtures for iNOS contained 10 mM of L-arginine, […], 6.5 mM BH4 and […] in 100 mM Hepes (pH 7.5). All assays were conducted in a final volume of 600 μL and were initiated with enzyme.

bovine eNOS = bovine eNOS (Bos taurus (Bovine), UniProt P29473); assay: Bovine eNOS hemoglobin capture assay; format: biochemical
Excerpt: as §1

Rat nNOS = Rat nNOS (Rattus norvegicus (Rat), UniProt P29476); assay: Rat nNOS hemoglobin capture assay; format: biochemical; settings: Table 2a
Excerpt: as §1

[3] = molecular target: human endothelial constitutive NOS (eNOS) (Homo sapiens (Human), UniProt P29474); assay: Human eNOS enzyme assay, radiometric;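 also: recombinant human eNOS expressed in baculovirus-infected Sf9 cells, activity read as [3H]L-arginine turned into [3H]L-citrulline, the product isolated on ion-exchange resin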
5-HT1B = 5-HT1B (Rattus norvegicus (Rat), UniProt P28564); assay: 5-HT1B binding assay (agonist radioligand), rat cerebral cortex
5-HT1B, sequence (P28564 whole entry): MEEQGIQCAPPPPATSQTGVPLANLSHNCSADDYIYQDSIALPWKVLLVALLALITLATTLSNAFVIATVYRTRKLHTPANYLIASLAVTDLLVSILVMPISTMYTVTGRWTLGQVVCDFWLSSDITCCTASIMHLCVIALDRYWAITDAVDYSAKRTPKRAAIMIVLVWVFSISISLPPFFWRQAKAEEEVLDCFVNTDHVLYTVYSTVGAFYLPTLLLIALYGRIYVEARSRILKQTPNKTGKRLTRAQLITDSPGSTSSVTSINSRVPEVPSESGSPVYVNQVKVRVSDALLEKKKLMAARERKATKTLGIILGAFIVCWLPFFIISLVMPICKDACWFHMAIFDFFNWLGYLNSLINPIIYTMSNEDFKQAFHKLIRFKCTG
Description: 5-HT1D binding assays (agonist radioligand)were performed using bovine caudate membranes according to the methods of Heuring and Peroutka (J. Neurosci 1987, 7: 894-903). 5-HT1B (rat cerebral cortex) binding assays (agonist radioligand) were performed according to the method of Hoyer et. al. (Eur. J. Pharmacol. 1995, 118: 1-12). For the purpose of result analysis, the specific ligand binding to the receptors is defined as the difference between the total binding and the nonspecific binding as determined in the presence of an excess of unlabelled ligand. The results are expressed as a percent of control specific binding obtained in the presence of the test compounds. IC50 values (concentration causing a half-maximal inhibition of control specific binding) and Hill coefficients (nH) were determined by non-linear regression analysis of the competition curves using Hill equation curve fitting and the inhibition constants (Ki) were calculated from the Cheng Prusoff equation (Ki=IC50/(1+(L/KD)), where L=concentration of radioligand in the assay, and KD=affinity of the radioligand for the receptor).

[4] = test system: L5/L6 spinal nerve ligation; assay: Chung spinal nerve ligation (SNL) model of neuropathic pain; format: in vivo; settings: rats; for tactile hyperthesia: L5/L6 spinal nerve ligation, FIGS. 20 and 22; for thermal hyperalgesia: one standard dose (10 mg/kg) injected IP, FIG. 19, 21
Description: (a) Chung Model of Injury-induced Neuropathic-like Pain: The experimental designs for the Chung Spinal Nerve Ligation SNL Model assay for neuropathic pain are depicted in FIG. 18. Nerve ligation injury was performed according to the method described by Kim and Chung (Kim and Chung, Pain 50:355-363, 1992). This technique produces signs of neuropathic dysesthesias, including tactile allodynia, thermal hyperalgesia, and guarding of the affected paw. Rats were anesthetized with halothane and the vertebrae over the L4 to S2 region were exposed. The L5 and L6 spinal nerves were exposed, carefully isolated, and tightly ligated with 4-0 silk suture distal to the DRG. After ensuring homeostatic stability, the wounds were sutured, and the animals allowed to recover in individual cages. Sham-operated rats were prepared in an identical fashion except that the L5/L6 spinal nerves were not ligated. […] After a period of recovery following the surgical intervention, rats show enhanced sensitivity to painful and normally non-painful stimuli.

migraine = settings: single i.v. administration; human migraine; cited from earlier work
persistent shock = settings: up to 30 days; 11 patients with persistent shock; cited from earlier work
hindpaw allodynia = assay: Experimental migraine model, inflammatory soup on dura, hindpaw allodynia
migraine attack = settings: open pilot study; cited from earlier work
[5] = test system: rat cortical neuronal cultures; assay: Neuroprotection of rat cortical cells against NMDA challenge; format: cell-based; settings: 60-minute pre-incubation; 30 minutes 25 μM NMDA; propidium iodide after 24 hrs; FIG. 1
Description: According to a previously reported procedure (Tremblay et al., J Neurosci. 20(19):7183-92, 2000), test compounds were added for a 60-minute pre-incubation period to rat cortical neuronal cultures, which were then exposed for 30 minutes to 25 μM NMDA in buffer. After 24 hrs cultures were treated with propidium iodide and the % cell death determined and compared to control cells.

cardiogenic shock = settings: randomized trial of 30 patients; reduced from 67%; cited from earlier work
[6] = Table 2a, hemoglobin capture assay, read-out: Murine iNOS
[7] = Table 2a, hemoglobin capture assay, read-out: Bovine eNOS
[8] = read-out: nNOSh, Table I, human NOS, dihydrochloride or monohydrochloride salts
[9] = read-out: eNOSh, Table I, human NOS, dihydrochloride or monohydrochloride salts
[10] = 6 mg/kg i.v. 10 minutes prior to IS
[11] = Table I, human NOS, dihydrochloride or monohydrochloride salts, read-out: iNOSh

Compound: N=C(Nc1ccc2ccn(CCc3ccccc3)c2c1)c1cccs1 [Compound 27]
- IC50 ([1]; read-out: Human nNOS, Table 2b): 12 µM
- IC50 ([2]; Table 2b, read-out: Human iNOS): 320 µM
- IC50 (murine macrophage iNOS; [6]): 159 µM
- IC50 (bovine eNOS; [7]): > 300 µM
- IC50 (Rat nNOS): 14.6 µM
- IC50 ([3]; read-out: Human eNOS, Table 2b): > 100 µM

Compound: CN1CCC[C@H]1Cc1c[nH]c2ccc(NC(=N)c3cccs3)cc12 [Compound 105, (S)-N-(3-((1-methylpyrrolidin-2-yl)methyl)-1H-indol-5-yl)thiophene-2-carboximidamide]
- e/n ([1]; Table I, ratio eNOSh/nNOSh): 29
- IC50 [1, 8]: 0.82 µM
- IC50 (5-HT1B): 0.29 µM
- IC50 [3, 9]: 23 µM

- e/n ([1]; Table I, ratio eNOSh/nNOSh): 90
- IC50 [1, 8]: 0.43 µM
- IC50 (5-HT1B): 0.49 µM
- IC50 [3, 9]: 39 µM
Compound: CN1CCC(c2c[nH]c3ccc(NC(=N)c4cccs4)cc23)C1 (centres unmarked) [Compound 110, N-(3-(1-methylpyrrolidin-3-yl)-1H-indol-5-yl)thiophene-2-carboximidamide]

- IC50 ([1]; read-out: Human nNOS, Table 2b): 0.2 µM
- IC50 ([2]; Table 2b, read-out: Human iNOS): 72.6 µM
- IC50 ([3]; read-out: Human eNOS, Table 2b): 24 µM
Compound: CN1CCCC1CCn1ccc2ccc(NC(=N)c3cccs3)cc21 (stereo not drawn) [32(−)]
- tactile hyperthesia [4]: reversal of tactile hyperthesia
- thermal hyperalgesia [4]: clear antihyperalgesic effect

Compound: CN=C(N)NCCC[C@H](N)C(=O)O.Cl [L-NMMA, L-N^G methylarginine hydrochloride]
- response rate (migraine): 67%
- survival rate (persistent shock): 72%
- development of hindpaw allodynia (hindpaw allodynia; 10 mg/kg i.v 10 minutes prior to IS): prevents the development of hindpaw allodynia

Compound: CN1CCC[C@@H]1Cc1c[nH]c2ccc(NC(=N)c3cccs3)cc12 [Compound 97, (R)-N-(3-((1-Methylpyrrolidin-2-yl)methyl)-1H-indol-5-yl)thiophene-2-carboximidamide]
- e/n ([1]; Table I, ratio eNOSh/nNOSh): 41
- IC50 [1, 8]: 0.84 µM
- IC50 (5-HT1B): 0.31 µM
- development of hindpaw allodynia (hindpaw allodynia; [10]): prevents the development of hindpaw allodynia
- IC50 [3, 9]: 34.5 µM

- IC50 ([1]; read-out: Human nNOS, Table 2b): 0.32 µM
- IC50 ([2]; Table 2b, read-out: Human iNOS): 72.8 µM
- IC50 ([3]; read-out: Human eNOS, Table 2b): 16 µM
Compound: CN1CCCC1CCn1ccc2ccc(NC(=N)c3cccs3)cc21 (stereo not drawn) [32(+)]
- tactile hyperthesia [4]: reversal of tactile hyperthesia
- thermal hyperalgesia [4]: clear antihyperalgesic effect

- melting point: 212 °C
Compound: CN1CCC[C@H]1CCc1c[nH]c2ccc(NC(=N)c3cccs3)cc12 (as salt: hydrochloride) [Compound 147, (R)-N-(3-(2-(1-Methylpyrrolidin-2-yl)ethyl)-1H-indol-5-yl)thiophene-2-carboximidamide]

Compound: CN1CC=C(c2c[nH]c3ccc(NC(=N)c4cccs4)cc23)CC1 [Compound 42, N-(3-(1-methyl-1,2,3,6-tetrahydropyridin-4-yl)-1H-indol-5-yl)thiophene-2-carboximidamide]
- e/n [1]: 53
- IC50 [1, 8]: 0.92 µM
- IC50 [2, 11]: 20 µM
- IC50 (5-HT1B): 0.16 µM
- development of hindpaw allodynia (hindpaw allodynia; [10]): prevents the development of hindpaw allodynia
- IC50 [3, 9]: 51.1 µM

- melting point: 150 to 152 °C
Compound: CCN1CCC(c2c[nH]c3ccc(NC(=N)c4cccs4)cc23)CC1 [Compound 61, N-(3-(1-ethylpiperidin-4-yl)-1H-indol-5-yl)thiophene-2-carboximidamide]

Compound: CNS(=O)(=O)Cc1ccc2[nH]cc(CCN(C)C)c2c1 [Sumatriptan, reference compound]
- development of hindpaw allodynia (hindpaw allodynia; 1 mg/kg s.c. 5 minutes prior to soup, two hours after IS): prevention of the development of hindpaw allodynia

- IC50 (murine macrophage iNOS; [6]): 67.2 µM
- IC50 (bovine eNOS; [7]): 6.2 µM
- IC50 (Rat nNOS): 4.1 µM
Compound: CN1CCCC1CCn1ccc2ccc(NC(=N)c3cccs3)cc21 (centres unmarked) [Compound 32]

Compound: C/C1=C2/[N-][C@H]([C@H](CC(N)=O)[C@@]2(C)CCC(=O)NC[C@@H](C)OP(=O)([O-])O[C@H]2[C@@H](O)[C@@H](n3cnc4cc(C)c(C)cc43)O[C@@H]2CO)[C@]2(C)N=C(/C(C)=C3N=C(/C=C4N=C1[C@@H](CCC(N)=O)C\4(C)C)[C@@H](CCC(N)=O)[C@]\3(C)CC(N)=O)[C@@H](CCC(N)=O)[C@]2(C)CC(N)=O.[Co+3].[OH-] [hydroxycobalamin]
- patients with reduction in the frequency of migraine attack of 50% (migraine attack): 53%

Compound: CN(C)CCc1c[nH]c2ccc(NC(=N)c3cccs3)cc12 [Compound 18]
- protection of neuronal cells from death upon NMDA challenge [5]: protected neuronal cells from death
- e/n ([1]; Table I, ratio eNOSh/nNOSh): 10
- IC50 ([1]; read-out: Human nNOS, Table 2b): 2.6 µM
- IC50 [1, 8]: 2.6 µM
- IC50 ([2]; Table 2b, read-out: Human iNOS): 12 µM
- IC50 [2, 11]: 12 µM
- IC50 (murine macrophage iNOS): 43.5 µM
- IC50 (bovine eNOS): 248 µM
- IC50 (Rat nNOS): 3.3 µM
- IC50 ([3]; read-out: Human eNOS, Table 2b): 26 µM
- IC50 [3, 9]: 26 µM

- IC50 (bovine eNOS; [7]): 643 µM
- IC50 (Rat nNOS): 57.6 µM
Compound: N=C(Nc1ccc2[nH]ccc2c1)c1cccs1 [Compound 5]

- IC50 [1, 8]: 1.24 µM
- IC50 (5-HT1B): 1.1 µM
- IC50 [3, 9]: 33.8 µM
Compound: CN1CCC(c2c[nH]c3ccc(NC(=N)c4ccco4)cc23)C1 (centres unmarked) [Compound 111, N-(3-(1-methylpyrrolidin-3-yl)-1H-indol-5-yl)furan-2-carboximidamide]

Compound: COC(=O)[C@@H](N)CCCNC(=N)N[N+](=O)[O-] [L-NAME]
- patient mortality (cardiogenic shock): 27%

Compound: CCSC(=N)Nc1ccc2[nH]ccc2c1 [Compound 4]
- IC50 (murine macrophage iNOS; [6]): 46.9 µM
- IC50 (bovine eNOS; [7]): 164 µM
- IC50 (Rat nNOS): 29.6 µM

- IC50 [1, 8]: 0.41 µM
- IC50 [2, 11]: 5.6 µM
- IC50 [3, 9]: 15.1 µM
Compound: CN(C)CCCc1c[nH]c2ccc(NC(=N)c3cccs3)cc12 [Compound 56, N-(3-(3-(dimethylamino)propyl)-1H-indol-5-yl)thiophene-2-carboximidamide]
